Data on 53 molecules can be found in patent publication US20110183978A1, “Phenylpyri(mi)dinylazoles” (Bayer CropScience AG, priority 2009, published 2011).

A short description of this series: physchem.
[1] abbreviates: LogPA (logP of the stated pure compound or, in a mixture, of the main isomer, 1-substituted 3-aryl-1H-pyrazole).

Molecules are shown by their SMILES.

For orientation: chromatographic logP means a lipophilicity value derived from retention on a column. As for `CSCCn1cc(Br)c(-c2ccc(F)cc2)n1` [[VI-15], 4-Bromo-3-(4-fluorophenyl)-1-[2-(methylsulphanyl)ethyl]-1H-pyrazole], the chromatographic logP reads like this: (pH 2.3, LogP (pH 2.3)) 3.63; (pH 2.7, logP (pH 2.7)) 3.63. As to `CC(C)n1cc(-c2ccnc(N)c2)c(-c2ccc(F)cc2)n1` [[III-1], 4-[3-(4-Fluorophenyl)-1-isopropyl-1H-pyrazol-4-yl]pyridin-2-amine], the chromatographic logP stood at 1.22 (pH 2.3, LogP (pH 2.3)) and 1.22 (pH 2.7, logP (pH 2.7)). Take `FCC(CF)n1cc(-c2ccncc2)c(-c2ccc(F)cc2)n1` [Compound 177]: the chromatographic logP (LogPA) was determined as 1.16.

The molecule `CCn1cc(-c2ccnc(NC(=O)c3cn(C)nc3C(F)F)c2)c(-c2ccc(F)cc2)n1` [Compound 333] showed a chromatographic logP (LogPA) of 2.47. Turning to `CCC(C)n1ncc(-c2ccncc2)c1-c1c(F)cccc1F` (centres unmarked) [Compound 38], the chromatographic logP under setting [1] worked out at 1.9. Still for that read-out and setting: with `CSc1nccc(-c2cn(C3CCCCO3)nc2-c2ccc(F)cc2)n1` (centres unmarked) [Compound 74] the figure was 3.58; with `Nc1cc(-c2cn(C3CCCCO3)nc2-c2ccc(F)cc2)ccn1` (centres unmarked) [Compound 39], 1.38; with `COc1ccc(-c2nn(C3CCCCO3)cc2-c2ncnc3[nH]ccc23)cc1` (centres unmarked) [Compound 65], 1.54. `NC(=O)c1cc(-c2cn(C3CCCCO3)nc2-c2cccc(Cl)c2)ccn1` (centres unmarked) [Compound 95]: under setting [1], the chromatographic logP stood at 2.93. Turning to `CC(C)Cn1cc(-c2ccnc(S(C)(=O)=O)n2)c(-c2ccc(F)cc2)n1` [Compound 287], the chromatographic logP (LogPA) was 2.9. With `N#Cc1[nH]nc(-c2ccc(F)cc2)c1-c1ccncc1` [Compound 175], where the note is “LogPA”, the chromatographic logP is 1.08.

The molecule `CC(=O)Nc1nccc(-c2cn(CC(C)C)nc2-c2ccc(F)cc2)n1` [Compound 357] showed a chromatographic logP (LogPA) of 2.44.

The molecule `COCC(=O)Nc1cc(-c2c(-c3ccc(F)cc3O)nn(C)c2OC(F)F)ccn1` [Compound 201] yielded a chromatographic logP (LogPA) of 2.38.

As for `Fc1ccc(-c2nn(Cc3ccncc3)cc2-c2ccncc2)cc1` [Compound 121], the chromatographic logP under setting [1] stood at 0.25. `CC(C)n1nc(-c2ccc(F)cc2)c(Br)c1C(F)(F)F` [[VI-24], 4-Bromo-3-(4-fluorophenyl)-1-isopropyl-5-(trifluoromethyl)-1H-pyrazole]: the chromatographic logP is, setting by setting: (pH 2.3, LogP (pH 2.3)) 5.51; (pH 2.7, logP (pH 2.7)) 5.51. Turning to `COCC(=O)Nc1nccc(-c2cn(C(C)C)nc2-c2ccc(F)cc2)n1` [Compound 354], the chromatographic logP (LogPA) came to 2.37. As for `N#Cc1cc(-c2c(-c3ccncc3)cnn2C2CCCCO2)ccc1F` (centres unmarked) [[X-12], 2-fluoro-5-[4-(pyridin-4-yl)-1-(tetrahydro-2H-pyran-2-yl)-1H-pyrazol-5-yl]benzonitrile], under “pH 2.3, LogP (pH 2.3)”, the chromatographic logP was 1.45. `CC(C)n1cc(-c2ccnc(NC(=O)C3CC3)n2)c(-c2ccc(F)cc2)n1` [Compound 356] had a chromatographic logP (LogPA) of 2.49. The same measure, in the same setting: with `COCCOCC(=O)Nc1cc(-c2cn(C)nc2-c2ccc(F)cc2)ccn1` [Compound 345] the figure was 1.96. With `CC1(C)OB(c2cn(OC3CCCC3)nc2-c2ccc(F)cc2)OC1(C)C` [[V-6], 1-(Cyclopentyloxy)-3-(4-fluorophenyl)-4-(4,4,5,5-tetramethyl-1,3,2-dioxaborolan-2-yl)-1H-pyrazole], the chromatographic logP is, setting by setting: (pH 2.3, LogP (pH 2.3)) 5.51; (pH 2.7, logP (pH 2.7)) 5.51. For the molecule `CC(C)Nc1nccc(-c2c[nH]nc2-c2ccc(F)cc2)n1` [[XLVI-1], 4-[3-(4-fluorophenyl)-1H-pyrazol-4-yl]-N-isopropylpyrimidin-2-amine], the chromatographic logP (pH 2.7, logP (pH 2.7)) was 1.37. As to `CC(C)(C)c1ccc(-c2c(-c3ccncc3)cnn2C2CCCCO2)cc1` (centres unmarked) [Compound 57, 4-[5-(4-tert-butylphenyl)-1-(tetrahydro-2H-pyran-2-yl)-1H-pyrazol-4-yl]pyridine], under setting [1], the chromatographic logP came out at 2.02. With `CCC(=O)Nc1nccc(-c2cn(C(C)C)nc2-c2ccc(F)cc2)n1` [[I-g-1], N-{4-[3-(4-Fluorophenyl)-1-isopropyl-1H-pyrazol-4-yl]pyrimidin-2-yl}propanamide], for the setting “pH 2.7, logP (pH 2.7)”, the chromatographic logP came to 2.35.

Take `C=CCNc1nccc(-c2cnn(CC(C)C)c2-c2ccc(F)cc2)n1` [Compound 149]: the chromatographic logP under setting [1] was 2.37. The same measure, in the same setting: with `CC(C)=CCn1cc(-c2ccncn2)c(-c2cccc(Cl)c2)n1` [Compound 34] the figure was 3.5. Take `Fc1ccc(-c2nn(C3CCCCC3)cc2-c2ccncc2)cc1` [Compound 168]: the chromatographic logP (LogPA) was 1.91.

Molecule `CC(C)n1cc(B2OC(C)(C)C(C)(C)O2)c(-c2ccc(F)cc2)n1` [[V-1], 3-(4-Fluorophenyl)-1-isopropyl-4-(4,4,5,5-tetramethyl-1,3,2-dioxaborolan-2-yl)-1H-pyrazole] displayed a chromatographic logP (pH 2.3, LogP (pH 2.3)) of 4.46 and a chromatographic logP (pH 2.7, logP (pH 2.7)) of 4.51. With `CCn1cc(-c2ccnc(NC(=O)CCCCC(=O)OC)c2)c(-c2ccc(F)cc2)n1` [Compound 330], the chromatographic logP (LogPA) came out at 2.16. With `CC(c1ccccc1F)n1cc(Br)c(-c2ccc(F)cc2)n1` (centres unmarked) [[VI-9], 4-bromo-3-(4-fluorophenyl)-1-[1-(2-fluorophenyl)ethyl]-1H-pyrazole], the chromatographic logP runs as follows: (pH 2.3, LogP (pH 2.3)) 4.77; (pH 2.7, logP (pH 2.7)) 3.63. For `Fc1ccc(-c2nn(CC3CC3(Cl)Cl)cc2Br)cc1` (centres unmarked) [[VI-10], 4-bromo-1-[(2,2-dichlorocyclopropyl)methyl]-3-(4-fluorophenyl)-1H-pyrazole], the chromatographic logP (pH 2.3, LogP (pH 2.3)) is 4.43 and the chromatographic logP (pH 2.7, logP (pH 2.7)) was determined as 4.43. As to `CC(C)Nc1nccc(CC(=O)c2ccc(F)cc2)n1` [[XLIV-1], 1-(4-fluorophenyl)-2-[2-(isopropylamino)pyrimidin-4-yl]ethanone], the chromatographic logP (pH 2.7, logP (pH 2.7)) is 2.05. As to `CCCn1cc(Br)c(-c2ccc(F)cc2)n1` [[VI-14], 4-Bromo-3-(4-fluorophenyl)-1-propyl-1H-pyrazole], the chromatographic logP worked out at 3.89 (pH 2.3, LogP (pH 2.3)) and 3.89 (pH 2.7, logP (pH 2.7)). Turning to `CC(C)Cn1nc(-c2ccc(F)cc2)c(Br)c1OC(F)F` [[VI-b-3], 4-Bromo-5-(difluoromethoxy)-3-(4-fluorophenyl)-1-isobutyl-1H-pyrazole], the chromatographic logP reads like this: (pH 2.3, LogP (pH 2.3)) 4.91; (pH 2.7, logP (pH 2.7)) 4.91. `CC(C)n1cc(-c2ccnc(NC(c3ccc(F)cc3)C(F)(F)F)c2)c(-c2ccc(F)cc2)n1` (centres unmarked) [Compound 324] registered a chromatographic logP (LogPA) of 3.88. Take `Cn1cc(B2OC(C)(C)C(C)(C)O2)c(-c2ccc(F)cc2)n1` [[V-9], 3-(4-Fluorophenyl)-1-methyl-4-(4,4,5,5-tetramethyl-1,3,2-dioxaborolan-2-yl)-1H-pyrazole]: the chromatographic logP runs as follows: (pH 2.3, LogP (pH 2.3)) 3.47; (pH 2.7, logP (pH 2.7)) 3.47. Turning to `CCn1cc(-c2ccnc(NC(=O)CCc3ccc(Cl)cc3)c2)c(-c2ccc(F)cc2)n1` [Compound 336], where the note is “LogPA”, the chromatographic logP worked out at 3.32. Still for that read-out and setting: the figure for `CC(C)C(=O)Nc1cc(-c2cn(Cc3cccc(C#N)c3)nc2-c2ccc(F)cc2)ccn1` [Compound 308] is 2.69; for `CCOC(=O)Nc1cc(-c2cn(C(C)c3ccccc3F)nc2-c2ccc(F)cc2)ccn1` (centres unmarked) [Compound 263] it is 3.65.

`COc1ccc(-c2c(-c3ccncc3)cnn2C2CCCCO2)c2ccccc12` (centres unmarked) [[X-2], 4-[5-(4-methoxy-1-naphthyl)-1-(tetrahydro-2H-pyran-2-yl)-1H-pyrazol-4-yl]pyridine] returned a chromatographic logP (pH 2.3, LogP (pH 2.3)) of 1.61. Same read-out and setting: the figure for `c1ccc(COc2ccccc2-c2c(-c3ccncc3)cnn2C2CCCCO2)cc1` (centres unmarked) [[X-22], 4-{5-[2-(benzyloxy)phenyl]-1-(tetrahydro-2H-pyran-2-yl)-1H-pyrazol-4-yl}pyridine] is 1.64.

In the case of `COCCn1ncc(Br)c1-c1ccc(F)cc1` [[VI-7], 4-Bromo-5-(4-fluorophenyl)-1-(2-methoxyethyl)-1H-pyrazole], the chromatographic logP (pH 2.7, logP (pH 2.7)) was found to be 2.9. Take `Fc1ccc(-c2nn(Cc3ccccc3F)cc2Br)cc1` [[VI-13], 4-Bromo-1-(2-fluorobenzyl)-3-(4-fluorophenyl)-1H-pyrazole]: the chromatographic logP reads like this: (pH 2.3, LogP (pH 2.3)) 4.39; (pH 2.7, logP (pH 2.7)) 4.39. As for `CNC(=O)c1cc(-c2cn(C3CCCCO3)nc2-c2ccc(F)cc2)ccn1` (centres unmarked) [Compound 90], the chromatographic logP under setting [1] is 2.72. In the case of `OCC(O)Cn1cc(-c2ccncc2)c(-c2ccc(F)cc2)n1` (centres unmarked) [Compound 124], the chromatographic logP under setting [1] worked out at 0.17. For `CC(C1CC1)n1cc(Br)c(-c2ccc(F)cc2)n1` (centres unmarked) [[VI-22], 4-Bromo-1-(1-cyclopropylethyl)-3-(4-fluorophenyl)-1H-pyrazole], the chromatographic logP came to 4.43 (pH 2.3, LogP (pH 2.3)) and 4.43 (pH 2.7, logP (pH 2.7)).

In the case of `CC1(C)OB(c2ccnc(NC(=O)CC3CC3)c2)OC1(C)C` [[XV-a-5], 2-Cyclopropyl-N-[4-(4,4,5,5-tetramethyl-1,3,2-dioxaborolan-2-yl)pyridin-2-yl]acetamide], the chromatographic logP (pH 2.7, logP (pH 2.7)) was 0.27. `CC(C)S(=O)(=O)Nc1cc(-c2cn(CC(F)F)nc2-c2ccc(F)cc2)ccn1` [Compound 234] displayed a chromatographic logP (LogPA) of 3.96.

In turn, `CC(C)Cn1cc(-c2ccnc(NCc3ccccc3)n2)c(-c2ccc(F)cc2)n1` [Compound 182] displayed a chromatographic logP (LogPA) of 3.15. Regarding `Fc1ccc(-c2nn(Cc3cccnc3)cc2-c2ccncc2)cc1` [Compound 100], under setting [1], the chromatographic logP was found to be 0.78. As to `O=C(Nc1ccccc1)c1cc(-c2cn(C3CCCCO3)nc2-c2ccc(F)cc2)ccn1` (centres unmarked) [Compound 94], the chromatographic logP under setting [1] turned out to be 4.34. With `FC1(F)Oc2cccc(-c3c(-c4ccncc4)cnn3C3CCCCO3)c2O1` (centres unmarked) [[X-4], 4-[5-(2,2-difluoro-1,3-benzodioxol-4-yl)-1-(tetrahydro-2H-pyran-2-yl)-1H-pyrazol-4-yl]pyridine], the chromatographic logP (pH 2.3, LogP (pH 2.3)) amounted to 1.64. Consider `COc1ccc(-c2nn(C3CCCCO3)cc2-c2ccncc2)cc1` (centres unmarked) [Compound 43], for which the chromatographic logP under setting [1] was 1.24. Still for that read-out and setting: with `Fc1ccc(-c2c(-c3ccncc3)cnn2C2CCCCO2)c(F)c1` (centres unmarked) [Compound 56, 4-[5-(2,4-difluorophenyl)-1-(tetrahydro-2H-pyran-2-yl)-1H-pyrazol-4-yl]pyridine] the figure was 1.35.
